Here are results for 3 compounds from PMC6467724 (Journal of medicinal chemistry, 2018).

The conditions of data set [1]: mice, 40 mg/kg oral dose; cited from earlier work.
For data set [2] the following is noted: cited from earlier work.
Data set [3] is described as follows: Microsomal stability assay, human liver microsomes. The data set is classed as in vitro ADME.
Data set [4] can be described thus: Microsomal stability assay, rat liver microsomes. The data set is classed as in vitro ADME, rat (male Sprague-Dawley).
A short description of data set [5]: Microsomal stability assay, mouse liver microsomes. The data set is classed as in vitro ADME, mouse (male CD-1).
The nature of data set [6]: PK and tissue distribution assay, single oral dose. Particulars: Balb/c mice, single oral dose 25 mg/kg. The data set is classed as in vivo, BALB/c mice.
For data set [7] the following is noted: mice, oral doses up to 200 mg/kg; cited from earlier work.

Bounds are passed on as bounds.

Consider `CC[C@@H]([C@H](C)O)n1ncn(-c2ccc(N3CCN(c4ccc(OC[C@@H]5CO[C@@](Cn6cncn6)(c6ccc(F)cc6F)C5)cc4)CC3)cc2)c1=O` [posaconazole], for which, in data set [1], the “Maximal reported plasma concentration” value is 6 µM. Also, the “Maximal concentration detected in humans, fold lower than in mice” value in data set [2] is reported as 5 to 10 fold.

For the compound `O=C(N[C@@H](Cn1ccnc1)c1ccc(-c2ccc(F)cc2)cc1F)c1ccc(-c2nnc(-c3ccccc3)o2)cc1` [VFV, (R)-N-(1-(3,4′-difluoro-[1,1′-biphenyl]-4-yl)-2-(1H-imidazol-1-yl)ethyl)-4-(5-phenyl-1,3,4-oxadiazol-2-yl)benzamide, reference compound], the “Clint (estimated intrinsic clearance), Human” value in data set [3] (human pooled liver microsomes 0.5 mg/mL, 1 μM test compound) is reported as 29.9 mL/min/kg body weight. Further, in data set [3] (predicted from Clint, Qh 21 mL/min/kg), the “Clhep (hepatic clearance), Human” value was 12.3 mL/min/kg body weight. The “Clhep (hepatic clearance), Rat” value in data set [4] (predicted from Clint, Qh 70 mL/min/kg) was 14.2 mL/min/kg body weight. For the same compound, the “Clint (estimated intrinsic clearance), Rat” value in data set [4] (rat pooled liver microsomes 0.5 mg/mL, 1 μM test compound) is reported as 17.7 mL/min/kg body weight. In addition, in data set [5] (mouse pooled liver microsomes 0.5 mg/mL, 1 μM test compound), the “Clint (estimated intrinsic clearance), Mouse” value was 145 mL/min/kg body weight. Also, the “Clhep (hepatic clearance), Mouse” value in data set [5] (predicted from Clint, Qh 90 mL/min/kg) is recorded as 55.6 mL/min/kg body weight. Also, the “Plasma life time (time until the compound becomes undetectable)” value in data set [6] was greater than 24 h. In data set [7], the Acute toxicity entry was “no acute toxicity”.

Turning to `O=C(N[C@@H](Cn1ccnc1)c1ccc(Cl)cc1Cl)c1ccc(-c2nnc(-c3ccccc3)o2)cc1` [VNI, (R)-N-(1-(2,4-dichlorophenyl)-2-(1H-imidazol-1-yl)ethyl)-4-(5-phenyl-1,3,4-oxadiazol-2-yl)benzamide], the Acute toxicity result in data set [7] was “no acute toxicity”.
